This is an account of results in patent publication US6828441B2 (priority 1998, dated 2004).

By melting point is commonly meant the temperature, or range, at which the solid turns liquid.

`O=C(NCc1ncc(Cl)cc1Cl)c1c(Cl)cccc1Cl` [Compound 59, N-[(3,5-dichloro-2-pyridyl)methyl]-2,6-dichlorobenzamide] yielded a melting point of 161 to 165 °C. The value for `CCOC(=O)C(NC(=O)c1ccc(OC)c(OC)c1)c1ncc(CF)cc1Cl` (centres unmarked) was 40 to 43 °C; that for `CN(Cc1ncc(C(F)(F)F)cc1Cl)C(=O)c1c(Cl)cccc1Cl` [Compound 63, N-[(3-Chloro-5-trifluoromethyl-2-pyridyl)methyl]-N-methyl-2,6-dichlorobenzamide] was 83 to 84 °C; that for `FC(F)(F)c1cnc(CNC(=S)c2ccccc2Cl)c(Cl)c1` [Compound 701, N-[(3-Chloro-5-trifluoromethyl-2-pyridyl)methyl]-2-chlorobenzenethioamide] was 102 to 105 °C. Consider `O=C(NC(Cc1ccccc1)c1ncc(C(F)(F)F)cc1Cl)c1c(Cl)cccc1Cl` (centres unmarked), for which the melting point fell in the range of 164 to 168 °C.
